Read-outs that look alike come from different tables or passages of the source.
How the values were obtained:
PSP patients [1] = settings: patient 5, after 6 months of treatment with rasagiline (FIG. 2)
Description: (§1) The following clinical factors were analyzed: • 1. Patients and relatives received a protocol to document the frequency of falls. • 2. 12 of the patients were analyzed using posturographic measurements. • 3. Depression was evaluated using clinical criteria (DSM-IV). • 4. Eye movements were orthoptically evaluated (in some cases an electronystagmogram was performed). • 5. Dysarthria was investigated using the Bogenhausener dysarthria scale (BoDys) (ranges from 4=normal until 0=anarthria). • 6. Dysphagia was clinically documented and the introduction of a percutaneous feeding tube (PEG) was recorded. • 7. Incidence of pneumonia was recorded. • 8. Impulse control disorder and hallucinations were recorded. • 9. Possible side effects were recorded. • 10.

[2] = test system: apoptotic cell death initiated by mitochondria; settings: cell culture, Youdim et al. 2001; Akao et al. 2002; cited from earlier work
patients with PSP = settings: 1 mg/day
Description: A clinical trial is performed according to the following guidelines: [table]

[3] = test system: Bcl-2 and Bcl-xL expression; settings: parallel to downregulation of pro-apoptotic Bad and Bax; Youdim et al. 2003; cited from earlier work
PSP patients [4] = settings: for dysphagia, need for a PEG: PSP patients without PEG at initiation, observation phase; for frequency of falls, MW (mean): mean of documented PSP patients, baseline 23.059
Description: Eight men and nine women were treated.
as §1

[5] = test system: animal models of closed head trauma; settings: global focal ischemia, MPTP-induced neurotoxicity, ALS transgenic model, 6-OHDA model; cited from earlier work
[6] = PSP patients, rasagiline 1 mg/day

For `C#CCN[C@@H]1CCc2ccccc21` [rasagiline, R(+)-N-propargyl-1-aminoindan], the “posturographic measurement, before vs after treatment” value (PSP patients [1]) is given as “shows an improvement”, the “suppression of apoptotic cell death” value [2] is given as “potently suppresses apoptotic cell death” and the “reduction of the reported deterioration (PSPRS)” value (patients with PSP; 1 year, vs reported mean yearly increase of 9.7) is given as 33%. For the same compound, the “safety, gait disturbances and postural stability” value (patients with PSP; posturographic measurement) was “safe and effective in reducing gait disturbances and in enhancing postural stability”, the “expression of anti-apoptotic Bcl-2 and Bcl-xL” value [3] was “induces increase” and the “dysarthria, mean on the BoDys scale” value (PSP patients [4]; 10 patients, during observation time, from a mean of 2.5±0.5, 4=normal, 0=anarthria) was 2.7±0.5. For the same compound, the “deaths during the observation time” value (PSP patients [4]; 17 PSP patients, patients 9 and 4, both after treatment had ended) was “Two patients died”, the “dysphagia, need for a PEG” value (PSP patients [4]) was “none of the other patients required a PEG” and the “dysphagia, need for a PEG” value (PSP patients [4]; listed as Rasagiline) was “effective in improving or slowing progression of dysphagia”. For the same compound, the “period of treatment in which the reduction of the frequency of falls mainly took place” value (PSP patients [4]; [6]) was no more than 7 months, the “postural instability / number of falls (in words)” value (PSP patients [4]; [6]) was “improvement in postural instability was evident within the first 7 months” and the “postural instability / number of falls (in words)” value (PSP patients [4]; PSP patients, rasagiline 1 mg/day, listed as Rasagiline) was “effective in reducing the number of falls”. The “frequency of falls, MW (mean)” value (PSP patients [4]; 1 Month of rasagiline 1 mg/day) was 19.824 falls/week, the “frequency of falls, MW (mean)” value (PSP patients [4]; 2 Months of rasagiline 1 mg/day) was 20.692 falls/week and the “frequency of falls, MW (mean)” value (PSP patients [4]; 3 Months of rasagiline 1 mg/day) was 20.833 falls/week. For the same compound, the “frequency of falls, MW (mean)” value (PSP patients [4]; 4 Months of rasagiline 1 mg/day) was 20.667 falls/week, the “frequency of falls, MW (mean)” value (PSP patients [4]; 5 Months of rasagiline 1 mg/day) was 20.917 falls/week and the “frequency of falls, MW (mean)” value (PSP patients [4]; 6 Months of rasagiline 1 mg/day) was 19.923 falls/week. The “frequency of falls, MW (mean)” value (PSP patients [4]; 7 Months of rasagiline 1 mg/day) was 21.917 falls/week, the “frequency of falls, MW (mean)” value (PSP patients [4]; 8 Months of rasagiline 1 mg/day) was 23.5 falls/week and the “frequency of falls, MW (mean)” value (PSP patients [4]; 9 Months of rasagiline 1 mg/day) was 22.818 falls/week. For the same compound, the “frequency of falls, MW (mean)” value (PSP patients [4]; 10 Months of rasagiline 1 mg/day) was 25.1 falls/week, the “frequency of falls, MW (mean)” value (PSP patients [4]; 11 Months of rasagiline 1 mg/day) was 25.889 falls/week and the “frequency of falls, MW (mean)” value (PSP patients [4]; 12 Months of rasagiline 1 mg/day) was 24.6 falls/week. The impulse control disorder (PSP patients [4]; one patient with impulse control disorder at initiation) was “not influenced by treatment with rasagiline”, the “treating physician's assessment of deaths and intracranial haemorrhage after fall” value (PSP patients [4]; patients 9, 4 and 12) was “not related to rasagiline” and the “effect on eye movements” value (PSP patients [4]; rasagiline 1 mg/day) was “No effect”. The depression during treatment (PSP patients [4]; rasagiline 1 mg/day, 12 months observation, listed as Rasagiline) was “effective in reducing or eliminating depression”, the “reversibility of side effects after termination” value (PSP patients [4]; three patients with side effects) was “completely reversible” and the neuroprotection [5] was “Neuroprotection by rasagiline was achieved”.

— patent publication US20110130466A1 (priority 2009, published 2011)
